According to patent publication US5340833A, “Urokinase inhibitors” (Eisai Co., Ltd., priority 1992, dated 1994):
pIC50: −log10 of the molar value. Where “and” joins values, the source holds several entries; their conditions need not be identical. Identical values can stand only once. Counter-ions that a name gives are not always drawn.

Columns and labels:
Format in all cases: biochemical
human plasmin = molecular target: T1, human plasmin (Homo sapiens, UniProt P00747); test: Plasmin Assay; settings: for PLM/uPA ratio: ratio with respect to urokinase indirect plasminogen-linked IC50, larger = greater specificity for urokinase; for pIC50: read-out: PLASMIN IC50; for inhibition at 1000 µM: read-out: PLASMIN activity observed relative to inhibitor-free controls
T1 construct: plasmin, the potent general protease produced by cleavage of plasminogen by either urokinase or tPA; purchased American Diagnostica
T1 sequence (P00747 581-810 limits assumed): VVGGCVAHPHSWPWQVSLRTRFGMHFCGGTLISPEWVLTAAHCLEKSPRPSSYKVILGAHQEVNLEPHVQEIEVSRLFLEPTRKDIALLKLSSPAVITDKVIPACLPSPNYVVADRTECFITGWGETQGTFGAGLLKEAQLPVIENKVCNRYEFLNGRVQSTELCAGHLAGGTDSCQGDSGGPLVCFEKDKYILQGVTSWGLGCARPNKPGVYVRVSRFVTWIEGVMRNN
T1 sequence (P00747 97-580 limits assumed): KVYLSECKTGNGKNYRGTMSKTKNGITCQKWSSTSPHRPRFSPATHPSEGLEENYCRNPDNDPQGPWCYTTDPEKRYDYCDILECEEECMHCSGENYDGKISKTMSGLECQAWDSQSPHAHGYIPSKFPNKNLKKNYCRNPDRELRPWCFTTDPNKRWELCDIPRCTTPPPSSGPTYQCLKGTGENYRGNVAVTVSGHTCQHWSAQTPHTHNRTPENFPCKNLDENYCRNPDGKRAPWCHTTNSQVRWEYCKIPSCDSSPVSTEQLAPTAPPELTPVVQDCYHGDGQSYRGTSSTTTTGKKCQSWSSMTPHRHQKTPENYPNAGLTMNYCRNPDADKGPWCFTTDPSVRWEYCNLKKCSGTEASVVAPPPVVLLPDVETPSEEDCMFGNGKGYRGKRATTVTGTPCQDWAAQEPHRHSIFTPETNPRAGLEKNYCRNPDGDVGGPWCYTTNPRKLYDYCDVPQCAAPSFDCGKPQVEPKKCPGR
Experimental: (v) A chromogenic pNA assay for plasmin, the potent general protease produced by cleavage of plasminogen by either urokinase or tPA. Although urokinase initiates cellular invasiveness by generating plasmin, the additional importance of plasmin in tPA-mediated fibrinolysis dictates that plasmin itself should be free from inhibition by urokinase inhibitors designed as anti-invasiveness agents. […] All other assay conditions, as well as methods of color quantitation, were carried out as described above for the urokinase direct assay.

urokinase = molecular target: T2, urokinase (Homo sapiens, UniProt P00749); test: Urokinase Indirect (Plasminogen-Linked) Assay; settings: Table 3 column 4, simple number, unit inferred; read-out: uPA Indirect (plasminogen-linked) IC50
T2 construct: human high molecular weight urokinase; purchased American Diagnostica, Greenwich, Conn
Experimental: (ii) An indirect plasminogen-linked assay in which urokinase proteolytically activates plasminogen, forming plasmin which then cleaves a synthetic tripeptide pNA plasmin substrate.
Incubations were carried out at 22° C. for 45-60 minutes or until adequate color developed. Color qas quantitated as in the urokinase direct assay above. Parallel incubations were performed with and without plasminogen, and corrected absorbance values were obtained by subtracting values obtained without plasminogen from those obtained with plasminogen, eliminating any contribution of direct cleavage, if any, of plasmin substrate by urokinase.

human two-chain tPA = molecular target: T3, human two-chain tPA (Homo sapiens, UniProt P00750); test: tPA Indirect (Plasminogen-Linked) Assay (tPA Direct Assay result where lower); settings: for tPA/UPA ratio: ratio with respect to urokinase indirect plasminogen-linked IC50, larger = greater specificity for urokinase; for pIC50: tPA Indirect Plasminogen-Linked Assay, in rare cases direct assay result if lower, read-out: tPA IC50
T3 construct: human two-chain tPA was substituted for urokinase; purchased American Diagnostica
T3 sequence (P00750 311-562 limits assumed): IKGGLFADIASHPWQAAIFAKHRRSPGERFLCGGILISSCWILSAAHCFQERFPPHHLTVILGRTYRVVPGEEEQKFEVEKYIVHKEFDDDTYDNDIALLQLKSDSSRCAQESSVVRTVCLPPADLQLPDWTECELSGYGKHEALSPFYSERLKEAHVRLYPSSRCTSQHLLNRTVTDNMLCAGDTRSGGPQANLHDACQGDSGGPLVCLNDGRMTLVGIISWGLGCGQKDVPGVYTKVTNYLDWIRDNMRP
T3 sequence (P00750 36-310 limits assumed): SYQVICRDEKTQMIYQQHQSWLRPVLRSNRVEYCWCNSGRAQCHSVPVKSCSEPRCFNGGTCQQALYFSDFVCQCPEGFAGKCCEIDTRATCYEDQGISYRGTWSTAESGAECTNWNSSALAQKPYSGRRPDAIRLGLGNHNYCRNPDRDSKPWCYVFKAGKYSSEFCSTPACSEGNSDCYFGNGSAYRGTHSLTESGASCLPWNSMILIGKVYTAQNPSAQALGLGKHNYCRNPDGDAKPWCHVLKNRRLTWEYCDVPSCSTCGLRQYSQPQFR
Description: (iv) Both direct and plasminogen-linked pNA assays for tPA, the other mammalian plasminogen activator and the key initiator of blood clot dissolution or fibrinolysis. Since urokinase and tPA share an absolute specificity for the same peptide bond in plasminogen, urokinase inhibitors designed to block cellular invasiveness must be highly specific for urokinase over tPA in order to avoid serious thrombotic side effects secondary to undesired blockage of normal fibrinolysis. […] Spectrozyme tPA®, American Diagnostica) was substituted for urokinase substrate.

| Compound | PLM/uPA ratio (human plasmin) | pIC50 (human plasmin) | pIC50 (urokinase) | tPA/UPA ratio (human two-chain tPA) | pIC50 (human two-chain tPA) | inhibition at 1000 µM (human plasmin) | inhibition at 1000 µM (human two-chain tPA; read-out: tPA activity observed relative to inhibitor-free controls) |
| --- | --- | --- | --- | --- | --- | --- | --- |
| C=CCOCc1cc2ccc3sc(C(=N)N)cc3c2s1 [Compound 208, 5-(Prop-2-en-1-yloxymethyl)thieno[4,5-b]benzo[b]thiophene-2-carboxamidine hydrochloride] | 910 | 3.56 | 6.52 | 190 | 4.24 |  |  |
| Cl.N=C(N)c1cc2c(C#Cc3ccc4c(c3)OCO4)cccc2s1 [Compound 77, 4-[(Benzo-1,3-dioxolan-5-yl)ethynyl]benzo[b]thiophene-2-carboxamidine hydrochloride] | ≈ 4240 | ~3.60 | 7.23 | 142 | 5.08 |  |  |
| Cl.N=C(N)c1cc2ccc3ccccc3c2s1 [Compound 312, Naphtho[1,2-b]thiophene-2-carboxamidine hydrochloride] | > 50 | < 4.00 | 5.72 | > 50 | < 4.00 |  |  |
| C=CCc1cccc2sc(C(=N)N)cc12.Cl [Compound 19, 4-(Prop-2-enyl)benzo[b] thiophene-2-carboxamidine hydrochloride] | 1120 | 3.30 | 6.35 | 127 | 4.24 |  |  |
| CCCCC=Cc1cccc2sc(C(=N)N)cc12 [Compound 29, 4-(E/Z-Hex-1-enyl)benzo[b]thiophene-2-carboxamidine hydrochloride] | 718 | 3.61 | 6.47 | 250 | 4.07 |  |  |
| CC(C)/C=C/c1cccc2sc(C(=N)N)cc12.Cl [Compound 23, 4-(E-3-Methylbut-1-enyl)benzo[b]thiophene-2-carboxamidine hydrochloride] | 4838 | 3.20 | 6.89 | 315 | 4.39 |  |  |
| Cl.N=C(N)c1cc2cc(-c3ccco3)ccc2s1 [Compound 126, 5-(Furan-2-yl)benzo[b]thiophene-2-carboxamidine hydrochloride] | 763 | 3.27 | 6.15 | 200 | 3.85 |  |  |
| N=C(N)c1cc2c(C=Cc3ccccc3)cccc2s1 [Compound 63, 4-(E/Z-2-Phenylethenyl)benzo[b]thiophene-2-carboxamidine hydrochloride] | 1250 | 3.76 | 6.85 | 86 | 4.92 |  |  |
| CCCCCCc1cccc2sc(C(=N)N)cc12.Cl [Compound 13, 4-(Hexyl)benzo[b]thiophene-2-carboxamidine hydrochloride] | 464 | 3.71 | 6.38 | 214 | 4.05 |  |  |
| C=Cc1cccc2sc(C(=N)N)cc12.Cl [Compound 17, 4-Ethenylbenzo[b]thiophene-2-carboxamidine hydrochloride] | 42 | 4.24 | 5.85 | 6.3 | 5.07 |  |  |
| CSc1cccc2sc(C(=N)N)cc12.Cl [Compound 58, 4-(Methylthio)benzo[b]thiophene-2-carboxamidine hydrochloride] | 954 | 3.27 | 6.25 | 413 | 3.64 |  |  |
| N=C(N)c1ccc(/C=C/c2ccc3sc(C(=N)N)cc3c2)cc1 [Compound 122, 5-[E-2-(4-Carboxamidinophenyl)ethenyl]benzo[b]thiophene-2-carboxamidine bis-hydrochloride] | 367 | 3.44 | 6.01 | 1.48 | 5.84 |  |  |
| CCCc1cccc2sc(C(=N)N)cc12.Cl [Compound 9, 4-Propylbenzo[b]thiophene-2-carboxamidine hydrochloride] | 902 | 3.23 | 6.18 | 250 | 3.78 |  |  |
| N=C(N)c1cc2c(C=Cc3ccc4c(c3)OCCO4)cccc2s1 [Compound 66, 4-[E/Z,2-(Benzo-1,4-dioxan-6-yl)ethenyl]benzo[b]thiophene-2-carboxamidine hydrochloride] | 4580 | 3.76 | 6.92 and 7.42 | 395 | 4.82 |  |  |
| CCc1cccc2sc(C(=N)N)cc12.Cl [Compound 7, 4-Ethylbenzo[b]thiophene-2-carboxamidine hydrochloride] | 610 | 3.37 | 6.15 | 263 | 3.74 |  |  |
| C#Cc1cccc2sc(C(=N)N)cc12.Cl [Compound 39, 4-Ethynylbenzo[b]thiophene-2-carboxamidine hydrochloride] | 661 | 3.15 | 6.18 | 436 | 3.54 |  |  |
| Cl.N=C(N)c1cc2c(-c3ccccc3)cccc2s1 [Compound 44, 4-Phenylbenzo[b]thiophene-2-carboxamidine hydrochloride] | 800 | 3.06 | 5.96 | 58 | 4.19 |  |  |
| Cl.N=C(N)c1cc2c(-c3cccs3)cccc2s1 [Compound 50, 4-(Thien-2-yl)benzo[b]thiophene-2-carboxamidine hydrochloride] | 762 | 3.42 | 6.30 | 56 | 4.55 |  |  |
| COc1ccc2sc(C(=N)N)cc2c1Br.Cl [Compound 204, 4-Bromo-5-methoxybenzo[b]thiophene-2-carboxamidine hydrochloride] | ≥ 750 |  | 5.77 | 251 | 3.37 | 69% |  |
| Cl.Cl.N=C(N)c1cc2c(-c3cccnc3)cccc2s1 [Compound 48, 4-(Pyrid-3-yl)benzo[b]thiophene-2-carboxamidine bis-hydrochloride] | 609 | 3.47 | 6.25 | 152 | 4.07 |  |  |
| Cl.N=C(N)c1cc2c(C#Cc3ccco3)cccc2s1 [Compound 75, 4-[(Furan-2-yl)ethynyl]benzo[b]thiophene-2-carboxamidine hydrochloride] | 1694 | 3.54 | 6.77 | 194 | 4.48 |  |  |
| Cl.N=C(N)c1cc2cc(-c3ccccc3)ccc2s1 [Compound 124, 5-Phenylbenzo[b]thiophene-2-carboxamidine hydrochloride] | ≥ 10000 |  | 5.92 | 215 | 3.59 | 90% |  |
| Cl.N=C(N)c1cc2c(-c3cc4ccccc4o3)cccc2s1 [Compound 51, 4-(Benzo[b]furan-2-yl)benzo[b]thiophene-2-carboxamidine hydrochloride] | 1330 | 3.13 | 6.25 | 200 | 3.95 |  |  |
| Cl.N=C(N)c1cc2c(-c3ccco3)cccc2s1 [Compound 49, 4-(Furan-2-yl)benzo[b]thiophene-2-carboxamidine hydrochloride] | 1000 | 3.44 | 6.44 | 53 | 4.72 |  |  |
| Cl.N=C(N)c1cc2c(-c3ccc(-c4ccccc4)o3)cccc2s1 [Compound 78, 4-(5-Phenylfur-2-yl)benzo[b]thiophene-2-carboxamidine hydrochloride] | ≈ 500 | ~3.60 | 6.31 | 53 | 4.59 |  |  |
| CCC/C=C/c1cccc2sc(C(=N)N)cc12.Cl [Compound 25, 4-(E-Pent-1-enyl)benzo[b]thiophene-2-carboxamidine hydrochloride] | 1471 | 3.69 | 6.85 | 343 | 4.32 |  |  |
| Cl.N=C(N)c1cc2cc(I)ccc2s1 [Compound 104, 5-Iodobenzo[b]thiophene-2-carboxamidine hydrochloride] | ≥ 5000 |  | 5.62 | ≥ 500 |  | 96% | 63% |
| Cl.N=C(N)c1cc2c(CO)cccc2s1 [Compound 56, 4-(Hydroxymethyl)benzo[b]thiophene-2-carboxamidine hydrochloride] | ≥ 1500 |  | 6.06 | 640 | 3.25 | 67% |  |
| CC(C)CCc1cccc2sc(C(=N)N)cc12.Cl [Compound 12, 4-(3-Methylbutyl)benzo[b]thiophene-2-carboxamidine hydrochloride] | 847 | 3.54 | 6.47 | 279 | 4.02 |  |  |
